From US20240124408A1 (Sanofi, priority 2020, published 2024)

What was measured:
Type in all cases: cell-based
[1] = molecular target: T1, pig TRPM8 (Sus scrofa, UniProt F1SM15); test: In vitro pig TRPM8 fluorescence calcium flux assay (recombinant CHO cells, Fluo4-AM, FDSS6000); settings: recombinant CHO cells expressing pig TRPM8; menthol-related EC50, normalized to 100 μM menthol
T1 construct: expressed in transfected cells; host or cells: CHO (pcDNA5/FRT/TO vector; hygromycin B and blasticidin selection)
T1 sequence (F1SM15 1-1104): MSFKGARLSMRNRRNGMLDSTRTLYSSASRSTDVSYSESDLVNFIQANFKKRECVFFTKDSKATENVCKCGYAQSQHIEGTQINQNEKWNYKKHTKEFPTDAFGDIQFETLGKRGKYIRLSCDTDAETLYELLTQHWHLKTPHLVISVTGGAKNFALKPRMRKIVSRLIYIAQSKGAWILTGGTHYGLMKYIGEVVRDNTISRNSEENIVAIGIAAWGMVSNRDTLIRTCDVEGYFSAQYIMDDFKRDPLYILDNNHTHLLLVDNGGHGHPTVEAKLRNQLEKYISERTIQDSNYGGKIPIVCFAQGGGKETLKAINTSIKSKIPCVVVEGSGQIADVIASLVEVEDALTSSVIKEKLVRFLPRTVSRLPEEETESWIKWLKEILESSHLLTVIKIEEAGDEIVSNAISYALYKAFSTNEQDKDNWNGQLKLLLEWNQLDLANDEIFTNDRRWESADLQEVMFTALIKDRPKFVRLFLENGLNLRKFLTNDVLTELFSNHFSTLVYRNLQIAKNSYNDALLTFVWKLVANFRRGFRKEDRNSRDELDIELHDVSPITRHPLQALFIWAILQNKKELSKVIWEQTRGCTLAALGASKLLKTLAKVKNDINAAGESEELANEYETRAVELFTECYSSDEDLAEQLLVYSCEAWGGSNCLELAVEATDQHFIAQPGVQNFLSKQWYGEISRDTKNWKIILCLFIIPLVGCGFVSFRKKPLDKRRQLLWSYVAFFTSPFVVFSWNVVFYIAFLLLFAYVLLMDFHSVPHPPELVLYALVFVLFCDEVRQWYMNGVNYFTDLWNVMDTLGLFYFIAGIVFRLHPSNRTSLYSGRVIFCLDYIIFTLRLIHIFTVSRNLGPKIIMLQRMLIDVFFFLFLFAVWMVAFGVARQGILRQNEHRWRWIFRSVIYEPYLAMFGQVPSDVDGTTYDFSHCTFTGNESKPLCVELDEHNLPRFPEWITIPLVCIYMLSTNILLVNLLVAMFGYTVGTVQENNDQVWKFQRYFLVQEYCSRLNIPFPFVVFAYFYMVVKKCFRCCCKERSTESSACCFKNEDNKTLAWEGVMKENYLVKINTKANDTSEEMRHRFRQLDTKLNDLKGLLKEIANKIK
Outline: (§1)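 Agonist EC50 values come from sixteen-point dose responses normalized to the 100 μM menthol maximum, fitted sigmoidally. Calcium rise was followed for 3 min post-addition in recombinant CHO lines (human or pig TRPM8). Cells were dye-loaded with 2 μM Fluo4-AM, 1 h at room temperature, probenecid-containing HBSS.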

[2] = molecular target: T2, human TRPM8 (Homo sapiens, UniProt Q7Z2W7); test: In vitro human TRPM8 fluorescence calcium flux assay (recombinant CHO cells, Fluo4-AM, FDSS6000); settings: recombinant CHO cells expressing human TRPM8; menthol-related EC50, normalized to 100 μM menthol
T2 construct: expressed in transfected cells; host or cells: CHO (p658 mammalian expression vector)
T2 sequence (Q7Z2W7 whole entry): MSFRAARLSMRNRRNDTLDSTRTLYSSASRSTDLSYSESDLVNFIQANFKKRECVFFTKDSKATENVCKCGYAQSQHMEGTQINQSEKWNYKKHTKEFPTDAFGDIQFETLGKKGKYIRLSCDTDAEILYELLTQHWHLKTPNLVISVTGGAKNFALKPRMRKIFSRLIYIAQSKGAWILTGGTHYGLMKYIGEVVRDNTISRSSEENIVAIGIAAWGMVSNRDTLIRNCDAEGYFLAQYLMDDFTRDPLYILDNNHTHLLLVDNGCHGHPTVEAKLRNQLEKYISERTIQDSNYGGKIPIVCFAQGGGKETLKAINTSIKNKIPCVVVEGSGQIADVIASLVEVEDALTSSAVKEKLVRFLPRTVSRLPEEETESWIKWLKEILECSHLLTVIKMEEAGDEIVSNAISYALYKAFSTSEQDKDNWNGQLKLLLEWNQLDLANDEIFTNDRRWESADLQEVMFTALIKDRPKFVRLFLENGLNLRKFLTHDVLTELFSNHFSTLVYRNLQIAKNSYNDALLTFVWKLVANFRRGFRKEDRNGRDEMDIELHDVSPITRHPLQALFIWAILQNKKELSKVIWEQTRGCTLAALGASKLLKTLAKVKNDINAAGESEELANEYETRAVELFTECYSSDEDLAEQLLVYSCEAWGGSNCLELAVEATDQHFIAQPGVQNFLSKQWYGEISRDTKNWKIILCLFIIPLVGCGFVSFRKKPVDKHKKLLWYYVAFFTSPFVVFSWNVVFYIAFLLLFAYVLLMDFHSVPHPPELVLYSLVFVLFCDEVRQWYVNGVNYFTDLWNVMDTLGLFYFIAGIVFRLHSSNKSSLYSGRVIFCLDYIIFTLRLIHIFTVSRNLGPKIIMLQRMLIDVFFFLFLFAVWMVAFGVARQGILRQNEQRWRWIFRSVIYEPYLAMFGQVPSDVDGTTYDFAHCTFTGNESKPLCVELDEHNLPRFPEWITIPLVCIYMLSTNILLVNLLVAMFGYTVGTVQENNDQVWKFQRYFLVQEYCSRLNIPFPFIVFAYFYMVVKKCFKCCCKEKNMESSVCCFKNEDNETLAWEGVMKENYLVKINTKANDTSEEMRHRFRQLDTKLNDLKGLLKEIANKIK
Outline: as §1

[3] = molecular target: T2, human TRPM8; test: In vitro human TRPM8 automated patch-clamp assay (SyncroPatch 384PE, CHO cells); settings: CHO cells expressing human TRPM8, 28° C.
Description: (§2) In Vitro Pig and Human TRPM8 Automated Patch-Clamp Assays
(§3) Automated whole-cell recordings of compound effects were performed on the SyncroPatch 384PE (Nanion Technologies, Munich, Germany) incorporated into a Biomek FX pipetting robot (Beckman Coulter, Jersey City, NJ, USA) using the same engineered CHO cell lines expressing human or pig TRPM8 channels. Data acquisition and analysis were performed with the proprietary software PatchControl 384 and DataControl 384, respectively (Nanion Technologies, Munich, Germany). All recordings were carried out using planar borosilicate glass patch clamp chips in a 384-microtiter plate format with patch hole resistances of 2-4 MO. For recordings, standard intracellular solution was used containing (in mM): 130 KF, 4 NaCl, 1 MgCl2, 0.5 CaCl2, 10 HEPES and 10 EGTA/KOH (pH 7.2) and standard extracellular solution contained in mM: 150 NaCl, 4 KCl, 0.5 CaCl2, 1 MgCl2 and 10 HEPES (pH 7.3).
(§4) Prior to the electrophysiological measurements, cells were harvested using Accutase (GIBCO, Fisher Scientific) and resuspended in warmed extracellular solution. The cell suspension was kept in the dedicated cell reservoir at 28° C. at a 1 million/ml cell density and shaken at 500 rounds per min (rpm). Experiments were performed at 28° C. throughout. Cells were distributed in high resistance 4-holes-per-well Nanion chips where they were caught on the patch holes by application of a −80 mbar pressure. The cell membrane was ruptured to obtain the whole-cell configuration with a pressure pulse of −250 mbar for 2 seconds. Voltage protocols were constructed using PatchControl 384. The cells were held at a holding potential of −60 mV and TRPM8 currents were recorded using a ramp protocol from −80 to +80 mV every 5 seconds before and after compound addition. Resulting currents were recorded at both −80 and +80 mV and current kinetics were exported and analyzed. From each plate, control wells with 200 μM menthol were recorded to validate the assay. One concentration of compound was applied to each of the other wells. For each concentration, compound response was determined by subtracting the baseline current recorded before compound addition from the maximum peak elicited currents obtained after compound addition. Then, each compound response was normalized to control condition without compound and maximum current (Emax) obtained for each compound. Nanion DataControl 384 software plotted current response for each compound concentration and was able to calculate an EC50 value for each active compound.

[4] = molecular target: T1, pig TRPM8; test: In vitro pig TRPM8 automated patch-clamp assay (SyncroPatch 384PE, CHO cells); settings: CHO cells expressing pig TRPM8, 28° C.
Description: as §2, §3, §4

SMILES	EC50 [1]	EC50 [2]	EC50 [3]	EC50 [4]
COC(=O)c1cccc(C(O)CNC(=O)[C@]2(O)C[C@H](C)CC[C@H]2C(C)C)c1 (stereo partly drawn) [Example 34, methyl 3-(1-hydroxy-2-((1S,2S,5R)-1-hydroxy-2-isopropyl-5-methylcyclohexane-1-carboxamido)ethyl)benzoate]	80 nM	97 nM	4590 nM	3210 nM
CC(C)[C@@H]1CC[C@@H](C)C[C@@]1(O)C(=O)NCC(O)c1ccccc1O (stereo partly drawn) [Example 35, (1S,2S,5R)-1-hydroxy-N-(2-hydroxy-2-(2-hydroxyphenyl)ethyl)-2-isopropyl-5-methylcyclohexane-1-carboxamide]	3 nM	3 nM	1010 nM	1330 nM
COC(=O)COc1ccccc1C(O)CNC(=O)[C@]1(O)C[C@H](C)CC[C@H]1C(C)C (stereo partly drawn) [Example 36, methyl 2-(2-(1-hydroxy-2-((1S,2S,5R)-1-hydroxy-2-isopropyl-5-methylcyclohexane-1-carboxamido)ethyl)phenoxy)acetate]	36 nM	47 nM	1880 nM	3810 nM
CC(C)[C@@H]1CC[C@@H](C)C[C@@]1(O)C(=O)NCC(O)c1cccc(CO)c1 (stereo partly drawn) [Example 37, (1S,2S,5R)-1-hydroxy-N-(2-hydroxy-2-(3-(hydroxymethyl)phenyl)ethyl)-2-isopropyl-5-methylcyclohexane-1-carboxamide]	11 nM	17 nM	3100 nM	2360 nM
CC(C)[C@@H]1CC[C@@H](C)C[C@@]1(O)C(=O)NCC(=O)c1ccccc1O [Example 38, (1S,2S,5R)-1-hydroxy-N-(2-(2-hydroxyphenyl)-2-oxoethyl)-2-isopropyl-5-methylcyclohexane-1-carboxamide]	1.8 nM	2.4 nM	470 nM	276 nM
CC(C)[C@@H]1CC[C@@H](C)C[C@@]1(O)C(=O)NCC(=O)c1cccc(O)c1 [Example 39, (1S,2S,5R)-1-hydroxy-N-(2-(3-hydroxyphenyl)-2-oxoethyl)-2-isopropyl-5-methylcyclohexane-1-carboxamide]	0.9 nM	1.2 nM	460 nM	430 nM
CC(C)[C@@H]1CC[C@@H](C)C[C@@]1(O)C(=O)NC[C@H](O)c1cccc(O)c1 [Example 41, (1S,2S,5R)-1-hydroxy-N-((2R)-hydroxy-2-(3-hydroxyphenyl)ethyl)-2-isopropyl-5-methylcyclohexane-1-carboxamide]	74.5 nM	195 nM	1100 nM	5110 nM
CC(C)[C@@H]1CC[C@@H](C)C[C@@]1(O)C(=O)NC[C@@H](O)c1cccc(O)c1 [Example 42, (1S,2S,5R)-1-hydroxy-N-((2S)-hydroxy-2-(3-hydroxyphenyl)ethyl)-2-isopropyl-5-methylcyclohexane-1-carboxamide]	3.8 nM	12.4 nM	910 nM	921 nM
CC(C)[C@@H]1CC[C@@H](C)C[C@@]1(O)C(=O)NC[C@H](O)c1cccc(CO)c1 [Example 43, (1S,2S,5R)-1-hydroxy-N-((2R)-hydroxy-2-(3-(hydroxymethyl)phenyl)ethyl)-2-isopropyl-5-methylcyclohexane-1-carboxamide]	56.9 nM	191 nM	4000 nM	3970 nM
CC(C)[C@@H]1CC[C@@H](C)C[C@@]1(O)C(=O)NC[C@@H](O)c1cccc(CO)c1 [Example 44, (1S,2S,5R)-1-hydroxy-N-((2S)-hydroxy-2-(3-(hydroxymethyl)phenyl)ethyl)-2-isopropyl-5-methylcyclohexane-1-carboxamide]	10.6 nM	34.9 nM	1800 nM	711 nM
CC(C)[C@@H]1CC[C@@H](C)C[C@@]1(O)C(=O)NCCc1cccc(C#N)c1 [Example 48, (1S,2S,5R)—N-(3-cyanophenethyl)-1-hydroxy-2-isopropyl-5-methylcyclohexane-1-carboxamide]	5 nM	13.5 nM	2630 nM	4600 nM
CC(C)[C@@H]1CC[C@@H](C)C[C@@]1(O)C(=O)NCCc1ccccc1CCN [Example 53, (1S,2S,5R)—N-(2-(2-aminoethyl)phenethyl)-1-hydroxy-2-isopropyl-5-methylcyclohexane-1-carboxamide]	2.6 nM	2.4 nM	200 nM	326 nM
CC(C)[C@@H]1CC[C@@H](C)C[C@@]1(O)C(=O)NC[C@@H](OCC(=O)O)c1ccccc1 [Example 55, 2-((S)-2-((1S,2S,5R)-1-hydroxy-2-isopropyl-5-methylcyclohexane-1-carboxamido)-1-phenylethoxy)acetic acid]	54.3 nM	102 nM	4470 nM	3550 nM
CC(C)[C@@H]1CC[C@@H](C)C[C@@]1(O)C(=O)NC[C@@H](OCCO)c1ccccc1 [Example 56, (1S,2S,5R)-1-hydroxy-N—((S)-2-(2-hydroxyethoxy)-2-phenylethyl)-2-isopropyl-5-methylcyclohexane-1-carboxamide]	11.2 nM	19.6 nM	> 10000 nM	6160 nM
Cc1cccc(CCNC(=O)[C@]2(O)C[C@H](C)CC[C@H]2C(C)C)c1 [Example 58, (1S,2S,5R)-1-hydroxy-2-isopropyl-5-methyl-N-(3-methylphenethyl)cyclohexane-1-carboxamide]	2.2 nM	5.2 nM	1030 nM	887 nM
COC(=O)COc1ccccc1CCNC(=O)[C@]1(O)C[C@H](C)CC[C@H]1C(C)C [Example 61, methyl 2-(2-(2-((1S,2S,5R)-1-hydroxy-2-isopropyl-5-methylcyclohexane-1-carboxamido)ethyl)phenoxy)acetate]	7.4 nM	11.1 nM	2910 nM	5050 nM
COC(=O)COc1cccc(CCNC(=O)[C@]2(O)C[C@H](C)CC[C@H]2C(C)C)c1 [Example 64, methyl 2-(3-(2-((1S,2S,5R)-1-hydroxy-2-isopropyl-5-methylcyclohexane-1-carboxamido)ethyl)phenoxy)acetate]	8.3 nM	16.6 nM	5820 nM	3870 nM
CC(C)[C@@H]1CC[C@@H](C)C[C@@]1(O)C(=O)NCC(CCO)c1ccccc1 (stereo partly drawn) [Example 66, (1S,2S,5R)-1-hydroxy-N-(4-hydroxy-2-phenylbutyl)-2-isopropyl-5-methylcyclohexane-1-carboxamide]	75 nM	51 nM	3700 nM	6060 nM
CC(C)[C@@H]1CC[C@@H](C)C[C@@]1(O)C(=O)NCC(=O)Oc1ccccc1 [Example 67, phenyl ((1S,2S,5R)-1-hydroxy-2-isopropyl-5-methylcyclohexane-1-carbonyl)glycinate]	5 nM	9 nM	2700 nM	3360 nM
COc1cc(C=O)ccc1OC(=O)CNC(=O)[C@]1(O)C[C@H](C)CC[C@H]1C(C)C [Example 68, 4-formyl-2-methoxyphenyl ((1S,2S,5R)-1-hydroxy-2-isopropyl-5-methylcyclohexane-1-carbonyl)glycinate]	32 nM	44 nM	2690 nM	3640 nM
COC(=O)C(CNC(=O)[C@]1(O)C[C@H](C)CC[C@H]1C(C)C)c1ccccc1 (stereo partly shown) [Example 69]	42 nM	46 nM	1930 nM	1580 nM
CC(C)[C@@H]1CC[C@@H](C)C[C@@]1(O)C(=O)NCC(CO)c1ccccc1 (stereo partly drawn) [Example 70, (1S,2S,5R)-1-hydroxy-N-(3-hydroxy-2-phenylpropyl)-2-isopropyl-5-methylcyclohexane-1-carboxamide]	8 nM	9 nM	3990 nM	3740 nM
